The record followed here is patent US11291684B2, “Treatment of glaucoma” (TX MEDIC AB, priority 2017, dated 2022).

Series [1] relates to Schwann cells. In words: Gene expression (microarray) in cultured Schwann cells. The series is classed as cell-based, Human. The procedure: n=8×25 cm^2 culture flasks were set up. Two flasks were harvested on the day of treatment (24 hours after seeding). This represents the Day0 time point. From the remaining flasks, three flasks were treated with Control Medium and three were treated with Culture Medium (CM) containing dextran sulfate to give a final concentration of 0.01 mg/ml. Cells from the treated flasks were collected after 48 hours. Therefore the collected data represent (a) untreated cells (Day0 Controls and Day2 Controls) and (b) cells treated with dextran sulfate for 48 hours (Day2 dextran sulfate treated).
25 cm^2 flasks were coated by adding 2 ml per flask of a solution of 50 μg/ml poly-d-lysine in Hank's balanced salt solution (HBSS) and incubating overnight at 37° C. in the dark. Flasks were washed with cell culture water and air-dried for 30 min in the dark. Flasks were coated by adding 1 ml per flask of a solution of 25 μg/ml laminin in phosphate-buffered saline (PBS) and incubating for 2 hour at 37° C. in the dark. The laminin flasks were washed with PBS three times before plating cells.
Schwann cells growth medium was prepared by adding 10% of fetal bovine serum (FBS) to high-glucose DMEM and pre-warmed to 37° C. Cells were thawed in a 37° C. water bath for no longer than 2 min.
Cells from 12 vials were each gently transferred to a tube containing 10 ml of high-glucose DMEM medium and centrifuged at 400 relative centrifugal field (RCF) for 10 min. Pellet was resuspended in culture medium. The cells from the 12 vials were mixed and distributed equally into the previously coated 25 cm^2 flasks (n=8). Cells were incubated at 37° C. with 5% CO2. Cells were allowed to settle for 24 hours before dextran sulfate treatment.
Dextran sulfate (Tikomed AB, Sweden, WO 2016/076780) was provided at a stock concentration of 20 mg/ml and was kept in a temperature monitored refrigerator at 4° C. A fresh 100× dextran sulfate stock (1.0 mg/ml) was prepared in sterile DMEM-F12. The concentrated drug stock was sterile filtered and added to the respective culture media (19.6 ml CM and 0.4 ml dextran sulfate stock solution). The Control was made using 19.6 ml CM and 0.4 ml of DMEM-F12. Dextran sulfate and CM were added to the respective flasks (5 ml each) to reach the 0.01 mg/ml concentration of dextran sulfate in each dish with a total of 10 ml CM each.
CM was aspirated into a clean and labelled 15 ml Falcon tube. The flasks (without culture medium) were placed into the −80° C. freezer for 30 minutes. The CM in the Falcon tubes were spun at 3000×g for 5 minutes. Supernatant was removed and the small pellet was re-suspended in 2.5 ml Trizol:Water (4:1) solution at room temperature (RT, ˜22° C.).
The frozen flasks were removed one-by one from the freezer and the Trizol-Water from the appropriate tubes was moved to the flask. Flasks were left at RT for 5 minutes before the content was aspirated back into the 15 ml Falcon tube (after washing the bottom of the flask with the solution thoroughly). The flasks were inspected under the microscope to ensure full removal of cells. The collected lysates in the 15 ml Falcon tubes were placed into the −80° C. freezer.
Two aliquots of 1 ml lysate was removed from each sample and 200 μl of chloroform was added to each (0.2 ml of chloroform per 1 ml of TRIzol Reagent used during the cell lysis step) and the tube was shaken vigorously. Samples were stored at RT for 2-3 minutes and subsequently centrifuged at 12,000×g for 15 minutes at 4° C.
The RNA was precipitated from the aqueous phase by adding an equal amount of 100% ethanol. The precipitated RNA was fixed onto a Spin Cartridge, washed twice and dried. The RNA was eluted in 50 μl warm RNase-Free Water. The amount and quality of the purified RNA was measured by Nanodrop. The RNA was stored at −80° C. before transfer to Source Bioscience for Array analysis.
The expression data were downloaded into separate files for each cell line. […]

Series [2] is described as follows: Body weight and activity of rats in glaucoma model. The series is classed as in vivo, Sprague Dawley rats. To be noted: rat; day 28; treated animals gaining less weight. An excerpt:
Measured End-Points • IOP twice weekly throughout study from day 0 to day 28; • Immunohistochemistry for counting RGC that are immunoreactive for brain-specific homeobox/POU domain protein 3A (Brn3a) at day 28 (RGC survival); • Immunohistochemistry for laminin and fibronectin to evaluate scarring in the trabecular meshwork at day 28 in Groups 1 and 2; • Anterior segment and OCT imaging at day 28 to examine the angle and the thickness of the retinal nerve fiber layer comprising RGC axons; and • Body weight at day 28.

With dextran sulfate, the “effect on cell adhesion and movement in Schwann cells” value in series [1] (0.01 mg/ml, 48 hours) was “promoted cell detachment and movement”. Moreover, the differentially expressed genes in series [1] (D0 control vs D2 dextran sulfate treated, 0.01 mg/ml, 48 hours) is listed as 1244 genes. Also, the differentially expressed genes in series [1] (D2 control vs D2 dextran sulfate treated, 0.01 mg/ml, 48 hours) came to 700 genes. Besides, the “increase in decorin expression, fold change” value in series [1] (Schwann cells, 0.01 mg/ml, 48 hours) was 1.242. In series [1] (no effect), the “genes: abolished nutrient effect” value is 21 and the “genes: total” value is reported as 21. In addition, in series [1] (significant downregulation), the “genes: abolished nutrient effect” value is listed as 1, the “genes: enhanced response to nutrients” value is listed as 122, the “genes: new effect induced by dextran sulfate” value (“genes: new effect induced” for short) stood at 352 and the “genes: not different from control” value is on record as 42. Also, the “genes: total” value in series [1] (significant downregulation) is on record as 517. In series [1] (significant upregulation), the “genes: abolished nutrient effect” value is on record as 13, the “genes: enhanced response to nutrients” value is listed as 441, the “genes: new effect induced” value is 74 and the “genes: not different from control” value was 373. In addition, the “genes: total” value in series [1] (significant upregulation) worked out at 901. Moreover, in series [1] (total), the “genes: abolished nutrient effect” value worked out at 35, the “genes: enhanced response to nutrients” value is 563, the “genes: new effect induced” value is reported as 426 and the “genes: not different from control” value came out at 415. Further, the “genes: total” value in series [1] (total) stood at 1439. In addition, the “body weight difference vs saline treated animals” value in series [2] is recorded as “small but non-significant difference”.
